Results published in PubChem BioAssay AID256 (DTP/NCI, 2004).
Several values for one entry are separate records, joined by “and”; a condition that tells them apart may be missing. Identical values can stand only once. Inconclusive results and toxic doses are left out. How the source made its calls: active means survival T/C of 150% or more; inactive means T/C below 125% in these data.

Tested on: CD2F1 mice, L1210 leukemia ip, survival T/C
Assay: NCI In Vivo Anticancer Drug Screen. Data for tumor model L1210 Leukemia (intraperitoneal) in CD2F1 (CDF1) mice
Conditions: higher = longer survival
In short: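 Antitumor effect is scored in animals hosting a serially transplanted tumor. Values compare compound-dosed animals against vehicle-only controls as a simple quotient.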

[1] = endpoint: mean survival time, dose: 100.0 mg/kg/injection, schedule: Q01DX009 (ip), vehicle: saline with Tween-80
[2] = endpoint: mean survival time, dose: 100.0 mg/kg/injection, schedule: Q04DX003 (ip), vehicle: saline with Tween-80
[3] = endpoint: mean survival time, dose: 200.0 mg/kg/injection, schedule: Q01DX009 (ip), vehicle: saline with Tween-80
[4] = endpoint: mean survival time, dose: 200.0 mg/kg/injection, schedule: Q04DX003 (ip), vehicle: saline with Tween-80
[5] = endpoint: mean survival time, dose: 400.0 mg/kg/injection, schedule: Q01DX009 (ip), vehicle: saline with Tween-80
[6] = endpoint: mean survival time, dose: 400.0 mg/kg/injection, schedule: Q04DX003 (ip), vehicle: saline with Tween-80
[7] = endpoint: mean survival time, dose: 25.0 mg/kg/injection, schedule: Q04DX002 (ip), vehicle: saline with Tween-80
[8] = endpoint: mean survival time, dose: 50.0 mg/kg/injection, schedule: Q04DX002 (ip), vehicle: saline with Tween-80
[9] = endpoint: mean survival time, dose: 100.0 mg/kg/injection, schedule: Q04DX002 (ip), vehicle: saline with Tween-80
[10] = endpoint: mean survival time, dose: 200.0 mg/kg/injection, schedule: Q04DX002 (ip), vehicle: saline with Tween-80
[11] = endpoint: mean survival time, dose: 100.0 mg/kg/injection, schedule: Q04DX002 (ip), vehicle: saline
[12] = endpoint: mean survival time, dose: 200.0 mg/kg/injection, schedule: Q04DX002 (ip), vehicle: saline

Measured: T/C

COc1ccc(CCC(=O)O)cc1OC
inactive: [1] 96 % of control | [2] 98 % of control | [3] 97 % of control | [4] 96 % of control | [5] 92 % of control | [6] 104 % of control

CCc1ccccc1NC(=O)/C=C/C(=O)O
inactive: [1] 102 % of control | [2] 98 % of control | [3] 100 % of control | [5] 102 % of control | [6] 92 % of control

Cc1c[nH]c(=O)n(CC(=O)C2CCC3C4CCC5=CC(=O)CCC5(C)C4CCC23C)c1=O (configuration not stated)
inactive: endpoint: mean survival time, dose: 12.5 mg/kg/injection, schedule: Q04DX003 (ip), vehicle: Klucel (hydroxypropylcellulose) (HPC) 95 % of control | endpoint: mean survival time, dose: 25.0 mg/kg/injection, schedule: Q04DX003 (ip), vehicle: Klucel (hydroxypropylcellulose) (HPC) 95 % of control | endpoint: mean survival time, dose: 50.0 mg/kg/injection, schedule: Q04DX003 (ip), vehicle: Klucel (hydroxypropylcellulose) (HPC) 97 % of control | endpoint: mean survival time, dose: 100.0 mg/kg/injection, schedule: Q04DX003 (ip), vehicle: Klucel (hydroxypropylcellulose) (HPC) 98 % of control | endpoint: mean survival time, dose: 200.0 mg/kg/injection, schedule: Q04DX003 (ip), vehicle: Klucel (hydroxypropylcellulose) (HPC) 98 % of control

Brc1c(Br)c(Br)c2n[nH]nc2c1Br
inactive: endpoint: mean survival time, dose: 50.0 mg/kg/injection, schedule: Q01DX009 (ip), vehicle: saline 104 % of control | endpoint: mean survival time, dose: 100.0 mg/kg/injection, schedule: Q01DX009 (ip), vehicle: saline 104 % of control | endpoint: mean survival time, dose: 200.0 mg/kg/injection, schedule: Q01DX009 (ip), vehicle: saline 108 % of control

O=[N+]([O-])c1cc(Cl)cc2c1NP(=S)(c1ccccc1)N2 (configuration not stated)
inactive: [7] 91 % of control | [8] 102 % of control | [9] 91 % of control | [10] 98 % of control

FC(F)(F)/C([S-])=C(/[S-])C(F)(F)F.FC(F)(F)/C([S-])=C(/[S-])C(F)(F)F.FC(F)(F)/C([S-])=C(/[S-])C(F)(F)F.FC(F)(F)/C([S-])=C(/[S-])C(F)(F)F.[Co+3].[Co+3]
inactive: endpoint: mean survival time, dose: 12.5 mg/kg/injection, schedule: Q04DX003 (ip), vehicle: other 95 % of control | endpoint: mean survival time, dose: 25.0 mg/kg/injection, schedule: Q04DX003 (ip), vehicle: other 95 % of control | endpoint: mean survival time, dose: 50.0 mg/kg/injection, schedule: Q04DX003 (ip), vehicle: other 98 % of control

CSc1nc2c(c(=O)[nH]1)CC(=O)N2
inactive: endpoint: median survival time, dose: 50.0 mg/kg/injection, schedule: Q01DX005 (ip), vehicle: saline 93 % of control | endpoint: median survival time, dose: 100.0 mg/kg/injection, schedule: Q01DX005 (ip), vehicle: saline 91 % of control | endpoint: median survival time, dose: 200.0 mg/kg/injection, schedule: Q01DX005 (ip), vehicle: saline 98 % of control

O=C1CCc2cccc3cccc(c23)N1
inactive: [2] 98 % of control | [4] 98 % of control | [6] 90 % of control

N#CS.N=C=S.N=C=S.[Co+3].[NH-]CC[NH-].[NH-]CC[NH-]
inactive: [11] 111 % of control | [12] 104 % of control

Cc1c(F)cccc1NC(=O)OC(C)C
inactive: [9] 97 % of control | [10] 102 % of control | endpoint: mean survival time, dose: 400.0 mg/kg/injection, schedule: Q04DX002 (ip), vehicle: saline with Tween-80 94 % of control

c1ccc(COCCOCc2ccccc2)cc1
inactive: [2] 96 % of control | [4] 97 % of control | [6] 108 % of control

Cc1ccc(C(=O)O)s1
inactive: [2] 91 % of control | [4] 97 % of control

COCC1C(N)C(C)NC(Cl)C1C#N (configuration not stated)
inactive: [1] 97 % of control | [2] 95 % of control | [3] 97 % of control | [4] 100 % of control | [6] 100 % of control

CC(=O)OC1CCC2(C)C(CCC3C2CCC2(C)C(C(C)=O)CCC32)C1 (configuration not stated)
inactive: endpoint: mean survival time, dose: 100.0 mg/kg/injection, schedule: Q04DX003 (sc), vehicle: steriod suspending solution 103 % of control | endpoint: mean survival time, dose: 200.0 mg/kg/injection, schedule: Q04DX003 (sc), vehicle: steriod suspending solution 97 % of control | endpoint: mean survival time, dose: 400.0 mg/kg/injection, schedule: Q04DX003 (sc), vehicle: steriod suspending solution 107 % of control

CC1CCS(=O)(=O)CC1.[Cl][Hg][Cl]
inactive: endpoint: mean survival time, dose: 0.62 mg/kg/injection, schedule: Q04DX003 (ip), vehicle: saline 104 % of control | endpoint: mean survival time, dose: 1.25 mg/kg/injection, schedule: Q04DX003 (ip), vehicle: saline 106 % of control

O=c1[nH]c(=O)n(C2CCOC2)cc1Br (configuration not stated)
inactive: endpoint: mean survival time, dose: 100.0 mg/kg/injection, schedule: Q01DX001 (ip), vehicle: saline 103 % of control | endpoint: mean survival time, dose: 200.0 mg/kg/injection, schedule: Q01DX001 (ip), vehicle: saline 100 % of control | endpoint: mean survival time, dose: 400.0 mg/kg/injection, schedule: Q01DX001 (ip), vehicle: saline 103 % of control

O=C1OCC2CC=CCC12 (configuration not stated)
inactive: endpoint: mean survival time, dose: 50.0 mg/kg/injection, schedule: Q01DX001 (ip), vehicle: carboxymethylcellulose (CMC) 92 % of control | endpoint: mean survival time, dose: 100.0 mg/kg/injection, schedule: Q01DX001 (ip), vehicle: carboxymethylcellulose (CMC) 100 % of control | endpoint: mean survival time, dose: 200.0 mg/kg/injection, schedule: Q01DX001 (ip), vehicle: carboxymethylcellulose (CMC) 92 % of control | endpoint: mean survival time, dose: 400.0 mg/kg/injection, schedule: Q01DX001 (ip), vehicle: carboxymethylcellulose (CMC) 97 % of control

CSCCCCCCSC
inactive: [2] 95 % of control | [4] 101 % of control

CCn1c(=O)c2c(nc(Cl)n2C2OC(COC(C)=O)C(OC(C)=O)C(OC(C)=O)C2NC(C)=O)n(CC)c1=O (configuration not stated)
inactive: endpoint: mean survival time, dose: 12.5 mg/kg/injection, schedule: Q01DX005 (ip), vehicle: distilled water + Tween-80 98 % of control | endpoint: mean survival time, dose: 25.0 mg/kg/injection, schedule: Q01DX005 (ip), vehicle: distilled water + Tween-80 97 % of control | endpoint: mean survival time, dose: 50.0 mg/kg/injection, schedule: Q01DX005 (ip), vehicle: distilled water + Tween-80 97 % of control | endpoint: mean survival time, dose: 100.0 mg/kg/injection, schedule: Q01DX005 (ip), vehicle: distilled water + Tween-80 95 % of control | endpoint: mean survival time, dose: 200.0 mg/kg/injection, schedule: Q01DX005 (ip), vehicle: distilled water + Tween-80 97 % of control

COc1ccccc1NC(=O)Oc1ccc(C2CCCCC2)cc1
inactive: endpoint: mean survival time, dose: 25.0 mg/kg/injection, schedule: Q01DX009 (ip), vehicle: saline with Tween-80 108 % of control | [7] 100 % of control | endpoint: mean survival time, dose: 50.0 mg/kg/injection, schedule: Q01DX009 (ip), vehicle: saline with Tween-80 97 % of control | [8] 100 % of control | [1] 104 % of control | [9] 92 % of control and 98 % of control

C1CO[P+]2(O1)OCCO2
inactive: [11] 95 % of control | [12] 107 % of control | endpoint: mean survival time, dose: 400.0 mg/kg/injection, schedule: Q04DX002 (ip), vehicle: saline 95 % of control

O=S(=O)(Nc1ccc(O)cc1)c1ccccc1
inactive: [1] 103 % of control | [2] 101 % of control | [3] 95 % of control | [4] 103 % of control | [5] 95 % of control | [6] 107 % of control

[Cl][Pt][Cl].[NH-]C(CC(N)=O)C(=O)O (configuration not stated)
inactive: endpoint: median survival time, dose: 3.12 mg/kg/injection, schedule: Q04DX003 (ip), vehicle: water 109 % of control | endpoint: median survival time, dose: 6.25 mg/kg/injection, schedule: Q04DX003 (ip), vehicle: water 108 % of control | endpoint: median survival time, dose: 12.5 mg/kg/injection, schedule: Q04DX003 (ip), vehicle: water 101 % of control | endpoint: median survival time, dose: 25.0 mg/kg/injection, schedule: Q04DX003 (ip), vehicle: water 106 % of control | endpoint: median survival time, dose: 50.0 mg/kg/injection, schedule: Q04DX003 (ip), vehicle: water 118 % of control | endpoint: median survival time, dose: 100.0 mg/kg/injection, schedule: Q04DX003 (ip), vehicle: water 110 % of control

Cc1c2cnccc2c(C)c2c1c1ccccc1n2CCCCCCNCc1ccccc1
inactive: endpoint: mean survival time, dose: 25.0 mg/kg/injection, schedule: Q04DX003 (ip), vehicle: saline with Tween-80 95 % of control | endpoint: mean survival time, dose: 50.0 mg/kg/injection, schedule: Q04DX003 (ip), vehicle: saline with Tween-80 89 % of control | [2] 95 % of control

O=c1cc[nH]c(=S)[nH]1.[Pd]
inactive: endpoint: mean survival time, dose: 3.13 mg/kg/injection, schedule: Q04DX003 (ip), vehicle: distilled water + Tween-80 101 % of control | endpoint: mean survival time, dose: 6.25 mg/kg/injection, schedule: Q04DX003 (ip), vehicle: distilled water + Tween-80 101 % of control | endpoint: mean survival time, dose: 12.5 mg/kg/injection, schedule: Q04DX003 (ip), vehicle: distilled water + Tween-80 96 % of control | endpoint: mean survival time, dose: 25.0 mg/kg/injection, schedule: Q04DX003 (ip), vehicle: distilled water + Tween-80 98 % of control | endpoint: mean survival time, dose: 50.0 mg/kg/injection, schedule: Q04DX003 (ip), vehicle: distilled water + Tween-80 95 % of control | endpoint: mean survival time, dose: 100.0 mg/kg/injection, schedule: Q04DX003 (ip), vehicle: distilled water + Tween-80 90 % of control | endpoint: mean survival time, dose: 200.0 mg/kg/injection, schedule: Q04DX003 (ip), vehicle: distilled water + Tween-80 90 % of control
